Target: T1, Enkephalinase (Rattus norvegicus, UniProt P07861)
T1 construct: Enkephalinase is partially purified from rat kidney; from tissue; host or cells: rat kidney (microvilli fraction)
T1 sequence (P07861 1-750): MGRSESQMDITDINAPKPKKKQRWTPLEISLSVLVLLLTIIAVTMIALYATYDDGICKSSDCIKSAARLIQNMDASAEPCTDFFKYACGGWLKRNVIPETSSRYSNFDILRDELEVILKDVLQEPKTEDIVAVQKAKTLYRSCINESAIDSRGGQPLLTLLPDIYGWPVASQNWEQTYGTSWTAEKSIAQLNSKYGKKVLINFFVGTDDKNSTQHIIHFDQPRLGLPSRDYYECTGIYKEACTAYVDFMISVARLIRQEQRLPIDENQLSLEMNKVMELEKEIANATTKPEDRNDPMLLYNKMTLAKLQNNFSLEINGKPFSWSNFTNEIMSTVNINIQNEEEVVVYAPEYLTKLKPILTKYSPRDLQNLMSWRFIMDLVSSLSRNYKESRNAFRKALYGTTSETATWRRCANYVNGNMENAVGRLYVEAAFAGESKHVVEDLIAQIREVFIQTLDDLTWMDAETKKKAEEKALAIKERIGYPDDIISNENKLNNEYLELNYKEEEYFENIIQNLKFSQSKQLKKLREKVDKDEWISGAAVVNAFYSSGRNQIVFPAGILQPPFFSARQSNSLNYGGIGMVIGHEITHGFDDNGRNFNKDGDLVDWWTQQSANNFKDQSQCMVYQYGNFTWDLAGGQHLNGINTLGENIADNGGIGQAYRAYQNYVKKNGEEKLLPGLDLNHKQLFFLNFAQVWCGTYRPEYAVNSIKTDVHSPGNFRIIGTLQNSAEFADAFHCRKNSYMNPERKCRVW
Test: Enkephalinase inhibition (fluorometric assay, enzyme partially purified from rat kidney)
Type: biochemical
Conditions: 50 mM HEPES pH 7.4, 25° C., 12 μM dansyl-D-AlaGly(p-nitro)PheGly
Text: Enkephalinase is partially purified from rat kidney. The enzyme is extracted from the microvilli fraction by using Triton X-100 according to the method of Malfroy and Schwartz [J. Biol. Chem. 259, 14365-14370 (1984)]or by using a proteolytic treatment according to the method of Almenoff and Orlowski [Biochem. 22, 590-599 (1983)]. The enzyme is further purified by anion exchange chromatography (Mono Q™ column, Pharmacia) using a Pharmacia FPLC system. The enzyme activity may be measured by the fluorometric methods of Florentin et al. [Anal. Biochem. 141, 62-69 (1984)]or of Almenoff and Orlowski [J. Neurochemistry 42, 151-157 (1984)]. The enzyme is assayed in 50 mM HEPES buffer (pH 7.4) in a 3.0 mL reaction volume containing 12 μM of the substrate dansyl-D-AlaGly(p-nitro)PheGly(Km =40 μM) at 25° C. The substrate (and inhibitor) is added from a concentrated stock solution in DMSO (up to 0.1 mL DMSO final volume). The enzyme in a small volume (approximately 0.1 μg of FPLC purified protein) is added to initiate the reaction and the rate of fluorecense increase is recorded continuously using a fluorometer (excitation at 339 nm, emission at 562 nm).

- Ki: 5 nM
Compound: O=C(O)CC(Cc1ccccc1)C(=O)N[C@H]1Cc2ccccc2[C@H]2CCC[C@@H](C(=O)O)N2C1=O (stereo partly drawn) [101,287, [4S-[4α, 7α(R*), 12bβ]]-7-[(1-Oxo-2-carboxymethyl-3-phenylpropyl)amino]-1,2,3,4,6,7,8,12b-octahydro-6-oxopyrido[2,1-a][2]benzazepine-4-carboxylic acid]
